Data on 1 compound can be found in patent publication US9879013B2, “Purinone derivative” (ONO PHARMACEUTICAL CO., LTD., priority 2010, dated 2018).

The target in data set [1] is Human CYP2C8 (Homo sapiens (Human), UniProt P10632). Description: Inhibitory action on human CYP2C8. In kind it is in vitro ADME. As to the method:
(§1) Measurement of the Inhibitory Activity on Drug-Metabolizing Enzymes (Inhibitory Action on Human CYP2C8 and Human CYP2C19)
The reaction was carried out in a 96-well plate. […] 100 μL of this reaction mixture and 50 μL of the test compound prepared as described above and the positive control solution prepared as described above were dispensed into each well and pre-incubation was carried out at 10 minutes for 37° C. The reaction was started by the addition of 50 μL NADPH solution (final concentration=1 mmol/L) and incubation was carried out for 30 minutes at 37° C.

The target in data set [2] is Human CYP2C19 (Homo sapiens (Human), UniProt P33261). Description: Inhibitory action on human CYP2C19. Type of data set: in vitro ADME. The protocol: as §1
Human CYP2C19, sequence (P33261 whole entry): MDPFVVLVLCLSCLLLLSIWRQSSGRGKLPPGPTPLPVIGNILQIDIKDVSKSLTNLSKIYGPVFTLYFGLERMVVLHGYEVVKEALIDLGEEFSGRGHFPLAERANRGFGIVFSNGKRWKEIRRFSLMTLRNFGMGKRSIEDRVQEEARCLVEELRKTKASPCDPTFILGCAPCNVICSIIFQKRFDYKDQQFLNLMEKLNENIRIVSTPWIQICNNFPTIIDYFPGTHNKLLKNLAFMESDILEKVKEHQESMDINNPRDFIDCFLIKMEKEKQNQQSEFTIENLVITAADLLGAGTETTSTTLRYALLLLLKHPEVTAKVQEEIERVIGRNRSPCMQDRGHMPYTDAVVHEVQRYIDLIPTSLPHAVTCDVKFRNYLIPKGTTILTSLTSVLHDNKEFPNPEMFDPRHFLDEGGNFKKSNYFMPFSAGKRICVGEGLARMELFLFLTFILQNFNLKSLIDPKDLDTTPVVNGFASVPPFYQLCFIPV
The reaction was carried out in a 96-well plate. The positive control substances (CYP2C8: ketoconazole, CYP2C19: tranylcypromine) were adjusted (CYP2C8: 0.6 and 6 mmol/L, CYP2C19: 0.9 and 9 mmol/L) with DMSO to concentrations that were 300 times the final concentration, and solutions were prepared (CYP2C8: 8 and 80 μmol/L, CYP2C19: 12 and 120 μmol/L) by 75× dilution with purified water that contained 2.7% acetonitrile. The test compounds were adjusted to […] with DMSO and were adjusted to 4 and 40 μmol/L by 75× dilution with purified water that contained 2.7% acetonitrile. A reaction mixture was then prepared (the numerical values are final concentrations) by the addition of potassium phosphate buffer (pH 7.4), magnesium chloride ([…]), substrate (CYP2C8: dibenzylfluorescein 1 μmol/L, CYP2C19: 3-cyano-7-ethoxycoumarin 25 μmol/L), and E. coli-expressed liver microsome CYP2C8 (Cypex, 10 pmol/L) and CYP2C19 (Cypex, 3 pmol/L). 100 μL of this reaction mixture and 50 μL of the test compound prepared as described above and the positive control solution prepared as described above were dispensed into each well and pre-incubation was carried out at 10 minutes for 37° C. The reaction was started by the addition of 50 μL NADPH solution (final concentration=1 mmol/L) and incubation was carried out for 30 minutes at 37° C. The fluorescence intensity was measured (CYP2C8: excitation wavelength=485 nm, fluorescence wavelength=538 nm; CYP2C19: excitation wavelength=409 nm, fluorescence wavelength=460 nm) immediately after the addition of the NADPH and after incubation for 30 minutes.

For data set [3], the system named is Human liver cells. Description: Ability to reduce the mitochondrial membrane potential in cultured human hepatoma cells (JC-1). In kind it is cell-based. Particulars: JC-1, exposure for 24 hours, read-out: Ability to lower the mitochondrial membrane potential (IC50 (μM)). The source says: (§2) Measurement of the Cytotoxicity and Ability to Reduce the Mitochondrial Membrane Potential in Cultured Human Hepatoma Cells
Tissue that maintains an aerobic equilibrium, e.g., the kidneys and heart, and tissue that is exposed to high drug concentrations and carries out drug metabolism, e.g., the liver, are known to be sensitive to mitochondrial dysfunction (Drug Discovery Today, 12 (17-18), 777-785, 2007). The reduction or extinction of the mitochondrial membrane potential by a drug is caused by the direct inhibition of the electron transport system, decoupling of electron transport from ATP synthase, or the opening of a mitochondrial membrane permeability transition pore. As a consequence, measurement of the mitochondrial membrane potential of liver cells can provide a parameter for hepatotoxicity.
(§3) Human liver cells were seeded into a collagen-coated 96-well plate at a cell density of 30,000 cells/well and incubation was carried out overnight in an incubator at 37° C. in 5% CO2-95% air. The cultured cells were stained for 1 hour with 5,5′,6,6′-tetrahydro-1,1′,3,3′-tetramethyl-benzamidazolocarbocyanine iodide (JC-1) followed by treatment with the test compound. The test compound was dissolved in DMSO and then diluted with the liquid culture medium Hepatocyte Culture Medium (HCM) and added to the cells. The test compound treatment concentrations were 0, 6.25, 12.5, 25, 50, 100, 200, and 400 μmol/L. After exposure to the test compound for 24 hours, measurement was performed with a SpectraMax plate reader (Molecular Devices, LLC) at an excitation wavelength of 485 nm and a fluorescence wavelength of 538 nm and an excitation wavelength of 544 nm and a fluorescence wavelength of 590 nm. The membrane potential was determined by the ratio between the 544 nm/590 nm measurement value and the 485 nm/538 nm measurement value. After this, the ATP concentration in the cells was measured using a Celltiter Glo luminescent assay kit (Promega Corporation) in order to evaluate the cell toxicity of the test compound. The cells were lysed by the assay buffer provided with the measurement kit and the concentration of the ATP released from the cells was measured using the luciferin-luciferase enzyme activity as the index. The emission was measured using a SpectraMax plate reader. […] The ability to lower the mitochondrial membrane potential of the test compounds and the cytotoxicity of the test compounds are given in Table 3 below.

Data set [4] relates to Human liver cells. As to the kind of experiment: Cytotoxicity in cultured human hepatoma cells (ATP concentration, Celltiter Glo). Type of data set: cell-based. Particulars: 50% decline in ATP concentration, exposure for 24 hours, read-out: Toxicity for human liver cells (IC50 (μM)). As to the method:
as §2, §3

Data set [5] in a line: Stability in the rat liver microsome. The settings on record: 0.5 mg/mL microsomes, NADPH, 15 minutes at 37° C.
Protocol: (§4) Evaluation of the Stability in the Rat and Human Liver Microsome
(§5) A 0.25 mmol/L solution was prepared by diluting the test compound (10 mmol/L DMSO solution, 5 μL) with an aqueous 50% acetonitrile solution (195 μL).
(§6) 20 μL was collected immediately after the start and the reaction was stopped by the addition to 180 μL of acetonitrile that contained an internal standard (warfarin). 20 μL of this solution was stirred with 180 μL of an aqueous 50% acetonitrile solution on a filter plate for protein depletion followed by suction filtration, and the filtrate was used as the standard sample.
(§7) The previously indicated reaction solution was incubated for 15 minutes at 37° C., and 20 μL was then added to 180 μL cold acetonitrile (contained the internal standard warfarin) to stop the reaction. 20 μL of this was stirred with 180 μL of an aqueous 50% acetonitrile solution on a filter plate for protein depletion followed by suction filtration, and the filtrate was used as the standard sample.
Data set [6] is described as follows: Stability in the human liver microsome. Particulars: 0.5 mg/mL microsomes, NADPH, 15 minutes at 37° C.
Protocol: as §4, §5, §6, §7

A value given as a limit tells only on which side of the number the result lay.

Human CYP2C8, sequence (P10632 whole entry): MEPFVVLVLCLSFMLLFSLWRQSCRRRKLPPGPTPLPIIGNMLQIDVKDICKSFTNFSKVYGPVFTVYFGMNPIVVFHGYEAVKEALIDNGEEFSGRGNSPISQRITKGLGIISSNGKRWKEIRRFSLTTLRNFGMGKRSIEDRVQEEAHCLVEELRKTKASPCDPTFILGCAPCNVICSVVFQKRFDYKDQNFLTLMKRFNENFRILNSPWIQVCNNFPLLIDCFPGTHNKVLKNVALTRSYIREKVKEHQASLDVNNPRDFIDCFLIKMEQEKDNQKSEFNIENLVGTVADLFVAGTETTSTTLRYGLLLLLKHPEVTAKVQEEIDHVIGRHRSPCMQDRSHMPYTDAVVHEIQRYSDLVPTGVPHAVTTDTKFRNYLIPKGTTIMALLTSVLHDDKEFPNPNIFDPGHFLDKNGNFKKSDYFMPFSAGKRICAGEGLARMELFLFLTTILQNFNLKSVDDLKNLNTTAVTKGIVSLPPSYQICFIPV

For the compound `C#CC(=O)N1CCC(n2nc(-c3ccc(Oc4ccccc4)cc3)c3c(N)ncnc32)C1` (stereo not drawn) [Comparative compound B, reference compound], the IC50 is 6.9 µM in data set [1], 8.1 µM in data set [2], below 6.25 µM in data set [3] and below 6.25 µM in data set [4]. Besides, the “Residual ratio (%) in the rat liver microsome” value in data set [5] is 50.6%. Also, the “Residual ratio (%) in the human liver microsome” value in data set [6] is listed as 55.9%.
